Reference: US20040142899A1, “Compositions and methods for enhanced biostability and altered biodistribution of oligonucleotides in mammals” (ISIS Pharmaceuticals, Inc., priority 1990, published 2004)
Several values for one entry are separate records, joined by “and”; a condition that tells them apart may be missing. Equal entries are not always repeated.

How the values were obtained:
[1] = test system: E2 gene of bovine papilloma virus type 1 (BPV-1); experiment: E2 transactivation assay (pE2RE-1-CAT) in I-38 cells; type: cell-based, bovine papilloma virus-1; settings: I-38 cells transfected with pE2RE-1-CAT, harvested after 48 hours; lower = more inhibition; listed as positive control compound
MDR1 mRNA [2] = experiment: MDR1 mRNA expression by Northern blotting in MDR 3T3 cells; type: cell-based, human; settings: for MDR1 mRNA Level (arbitrary units) / % Control (MDR1 mRNA): oligonucleotide 1 μm, with Lipofectin; for MDR1 mRNA Level (arbitrary units): serum free medium; for % Control (MDR1 mRNA): control = untreated cells
Procedure: NIH 3T3 cells transfected with a plasmid containing the human MDR1 gene (pSK1 MDR) have been previously described (Kane et al., Gene, 1989, 84, 439). These cells have proven to be useful models for the study of multi-drug resistance phenomena. Cells were grown in DMEM media containing 10% fetal bovine serum (FBS) and 60 ng/ml colchicine in an atmosphere of 95% air, 5% CO2.
Cells were grown in […] flasks.
To measure MDR1 mRNA expression by Northern blotting, total cellular RNA was isolated by lysis in 4M guanidium isothiocyanate followed by a cesium chloride gradient, and the RNA was resolved on 1.2% agarose gels containing 1.2% formaldehyde and transferred to nitrocellulose membranes (Dean et al., J. Biol. Chem., 1994, 269, 16416). The blots were hybridized with a ^32P radiolabeled human MDR1 cDNA probe. The MDR1 cDNA probe was isolated by performing a polymerase chain reaction on the pSK1 MDR plasmid, as described previously (Alahari et al., Nucl. Acids Res., 1993, 21, 4079). The following oligonucleotide primers were used for PCR: […]
The resulting fragment was checked on an agarose gel and was radiolabeled with ^32P-dCTP using a commercially available random primer labeling kit (Amersham, Arlington Heights, Ill.) according to the manufacturer's instructions. The filters were hybridized overnight in hybridization buffer (25 mM KPO4, pH 7.4; 5×SSC; 5×Denhardt's solution, 100 ug/ml Salmon sperm DNA and 50% formamide) (Alahari et al., Nucl. Acids Res., 1993, 21, 4079). This was followed by two washes with 1×SSC, 0.1% SDS and two washes with 0.25×SSC, 0.1% SDS. Hybridizing bands were visualized by exposure to X-OMAT AR film and quantitated using a PhosphorImager™ (Molecular Dynamics, Sunnyvale, Calif.). To confirm equal loading of RNA, the blots were stripped and reprobed with a ^32P-labeled beta-actin probe (Clontech, Palo Alto, Calif).
In initial experiments, the MDR 3T3 cells were exposed to 1.0 μm concentrations of several different antisense oligonucleotides, or control oligonucleotides, in the presence of 20 ug/ml LIPOFECTIN® for 24 hours. […] NIH 3T3 cells transfected with pSK1 MDR plasmid were grown to 90% confluence and treated with oligonucleotide (1 μm) for 24 hours in the presence of Lipofectin® in serum free medium. Total RNA was isolated and fractionated on agarose formaldehyde gels and blotted onto nitrocellulose membranes. These membranes were probed with a ^32P radiolabeled 1.0 kb MDR1 cDNA, and then stripped and reprobed with a ^32P radiolabeled beta-actin cDNA probe to confirm equal loading of RNA, allowing the levels of MDR1 transcripts to be normalized with regard to the beta-actin bands. Transcript levels were quantitated using a PHOSPHORIMAGER™ (Molecular Dynamics, Sunnyvale, Calif.); the values are expressed in arbitrary units (the beta-actin transcripts were essentially constant).

P-glycoprotein [3] = experiment: P-glycoprotein expression by Western blotting in MDR 3T3 cells; type: cell-based, human; settings: maximum only after 72 hours exposure
Procedure: Transfected MDR NIH 3T3 cells were grown and treated with oligonucleotides as described in Example (9)(B). In order to measure P-glycoprotein expression by Western blotting, cells were seeded in 60 mm dishes at 1.2×10^6 per dish and incubated for 24 hours in serum containing medium. The cells were treated with the oligomers for various times in serum free medium as described above. Cells were then extracted in lysis buffer (20 mM Tris, pH 7.5, 2 mM EDTA, 500 mM EGTA, 2 mM PMSF, 1 mM DTT, aprotonin (10 ug/ml), 0.5% Triton-X) and sonicated briefly. The lysate was spun in a microfuge tube for 20 minutes at 4° C. and the resulting supernatant was checked for protein content. Equal amounts of protein (usually 20 ug) were mixed with SDS sample buffer and boiled. Protein samples were separated by 8% SDS PAGE and the resolved proteins were electrophoretically transferred onto polyvinyllidene fluoride membranes (Millipore, Bedford, Mass.). The membranes were blocked (with 3% BSA, 2% non fat dry milk in PBS) and then treated with 2 ug/ml C219 anti-P-glycoprotein antibody (Signet, Dedham, Mass.). After washing three times with 0.1% Tween 20, the membranes were incubated with rabbit anti-mouse antibody (Cappel, Durham, N.C.). Immunoreactive proteins were visualized either by ECL (Enhanced Chemiluminescence, Amersham, Arlington Heights, Ill.) or with ^125I secondary antibodies.

P-glycoprotein [4] = experiment: Cell surface P-glycoprotein by immunofluorescent staining and flow cytometry in MDR 3T3 cells; type: cell-based, human; settings: 1 μm administered with LIPOFECTIN, parallel experiment
Procedure: MDR 3T3 cells were treated with various concentrations of oligonucleotides ISIS 11073 (5′-cholesterol 5995), or ISIS 12064 (5′-cholesterol 10221; scrambled control) for 48 hours in serum free medium. The cells were recovered and stained with an anti-P-glycoprotein monoclonal antibody directed against a surface epitope, followed by a phycoerythrin-conjugated second antibody. The level of cell surface fluorescence in viable cells was quantitated using a flow cytometer; light scatter parameters were set so as to exclude non-viable cells. […] The results represent means and standard errors for 6 determinations.
Transfected MDR NIH 3T3 cells were grown and treated with oligonucleotides as described in Example (9)(B). MDR1 mRNA expression was measured by Northern blotting as described in Example (9)(C). In order to measure cell surface P-glycoprotein levels by flow cytometry, cells were seeded in 60 mm dishes at 1.2×10^6/plate in 5 ml of medium, grown for one day in 10% FBS/DMEM, and exposed to the oligomers in serum free medium. […] The level of R-PE fluorescence in viable cells (as determined by light scatter) was quantitated using the Cicero software application (Cytomation, Fort Collins, Co.) on a Becton Dickinson flow cytometer.

[5] = test system: multi-drug resistant 3T3 cells
MDR1 mRNA [6] = experiment: MDR1 mRNA expression by Northern blotting in MDR 3T3 cells; type: cell-based, human
[7] = test system: DNA complementary strand, Oligomer 40; experiment: Melting analysis (Tm) of 2′-O-pentylamino linker strand against DNA complementary strand; type: binding
Procedure: (§1) The test oligonucleotides (either the phosphodiester, phosphorothioate, cholic acid conjugated phosphodiester, cholic acid conjugated phosphorothioate or 5′-aminolink intermediate phosphodiester or phosphorothioate oligonucleotides of the invention or otherwise) and either the complementary DNA or RNA oligonucleotides were incubated at a standard concentration of 4 μM for each oligonucleotide in buffer (100 mM NaCl, 10 mM Na-phosphate, pH 7.0, 0.1 mM EDTA). Samples were heated to 90 degrees C. and the initial absorbance taken using a Guilford Response II spectro-photometer (Corning, Inc., Corning, N.Y.). Samples were then slowly cooled to 15° C. and then the change in absorbance at 260 nm was monitored during the heat denaturation procedure. The temperature was elevated 1 degree/absorbance reading and the denaturation profile analyzed by taking the 1st derivative of the melting curve. Data was also analyzed using a two-state linear regression analysis to determine the Tm's. The results of these tests are shown in Table 3 as are the HPLC retention times of certain of the test compounds.
(§2) Melting analysis was conducted as per the method of Procedure B(1)(b).

[8] = test system: RNA complementary strand, Oligomer 41; experiment: Melting analysis (Tm) of 2′-O-pentylamino linker strand against RNA complementary strand; type: binding
Procedure: as §1, §2

mouse ICAM-1 mRNA = experiment: ICAM-1 mRNA levels in LPS-treated mice (Northern analysis); type: in vivo
Procedure: (§3) Mice were treated with oligonucleotides and examined as follows. […] Then, to induce ICAM-1 expression, bacterial lipopolysaccharide (LPS) was injected into the mice. After 2 hours, the mice were sacrificed, and particular organs, or specific portion thereof, were removed for further study. RNA was prepared from isolated, homogenized tissues essentially according to the guanidinium/CsCl purification method of Chirgwin et al. (Biochemistry, […], 18, 5294), electrophoresed and transferred to nylon membranes for hybridization studies (Northern analysis) according to methods well known in the art. In order to detect mouse ICAM-1 mRNA, a radiolabelled probe was prepared by random oligonucleotide-primed synthesis using a mouse ICAM-1 clone as a template. The blots were stripped and reprobed with a ^32P-labeled glyceraldehyde 3-phosphate dehydrogenase (G3PDH) probe (Clontech Laboratories, Inc., Palo Alto, Calif.) in order to confirm equal loading of RNA and to allow the levels of ICAM-1 transcripts to be normalized with regard to the G3PDH signals. Hybridizing bands were visualized by exposure to X-OMAT AR film and quantitated using a PHOSPHORIMAGER™ essentially according to the manufacturer's instructions (Molecular Dynamics, Sunnyvale, Calif.).

c-raf mRNA = c-raf mRNA levels in murine liver (gene target specificity); type: in vivo, mouse; settings: 10 mg/kg
Procedure: as §3
(§4) In similar experiments, the sequence (gene target) specificity of the 5′-cholesterol antisense oligonucleotide ISIS 8005 was examined.

PECAM-1 mRNA = PECAM-1 mRNA levels in murine liver (gene target specificity); type: in vivo, mouse; settings: 10 mg/kg
Procedure: as §3, §4

[9] = Oligomer 38 versus unmodified Oligomer 39

For “5′-CTG-TCT-CCA-TCC-TCT-TCA-CT (CTGTCTCCATCCTCTTCACT; all phosphorothioate, sugars by position and methylation of C not given here) [Oligomer 42]”, the “percent acetylation (chloramphenicol acetyl transferase)” value [1] was 29% and 30%.

With “CAC-CAC-CCC-CCT-CGC-TGG-TC (CACCACCCCCCTCGCTGGTC; chemistry not given here) [ISIS 10221, reference compound]” the “MDR1 mRNA Level (arbitrary units)” value (MDR1 mRNA [2]; 24 hours) was 456,522 arbitrary units, the “% Control (MDR1 mRNA)” value (MDR1 mRNA [2]; 24 hours) was 96% and the “reduction of P-glycoprotein (Western assays)” value (P-glycoprotein [3]) was “did not reduce P-glycoprotein expression”. The “effect on P-glycoprotein surface expression” value (P-glycoprotein [4]) was “less effective than an equivalent concentration of the cholesterol-conjugated analogs”, the “non-specific effects at higher concentrations” value [5] was “reduced beta-actin message levels and increased cytotoxicity” and the MDR1/beta-actin ratio (MDR1 mRNA [6]; repeated experiments, laser densitometry of autoradiograms) was 1.01.

“CCA-TCC-CGA-CCT-CGC-GCT-CC (CCATCCCGACCTCGCGCTCC; chemistry not given here) [ISIS 5995]” was tested, and the “reduction in MDR1 message levels” value (MDR1 mRNA [2]; 1.0 μm, 20 ug/ml LIPOFECTIN, 24 hours) was “about 50%”, the “time to normal levels of MDR1 mRNA after return to medium without oligonucleotide” value (MDR1 mRNA [2]; after 24 hours exposure) was ≤ 24 h and the “reduction in MDR1 message at maximal specific effect” value (MDR1 mRNA [2]; approximately 1.0 μm, 24 hours, LIPOFECTIN (FIG. 1)) was “approximately 60%”. The “MDR1 mRNA Level (arbitrary units)” value (MDR1 mRNA [2]; 24 hours) was 226,087 arbitrary units, the “% Control (MDR1 mRNA)” value (MDR1 mRNA [2]; 24 hours) was 48% and the “reduction of P-glycoprotein (Western assays)” value (P-glycoprotein [3]) was “at least 80%”. The “effect on P-glycoprotein surface expression” value (P-glycoprotein [4]) was “less effective than an equivalent concentration of the cholesterol-conjugated analogs”, the “treatment time of maximum specific reduction of MDR1 mRNA” value (MDR1 mRNA [6]; 1 μm, 24, 48 and 72 hours tested) was 24 h and the “lowest concentration with some reduction in message levels” value (MDR1 mRNA [6]; dose response 50-1000 nM, 24 hours, LIPOFECTIN) was 100 nM.

With “GGA*-CCG-GA*A*-GGT-A*CG-A*G (GGACCGGAAGGTACGAG; chemistry not fully specified) [Oligomer 38, A* = pentylamino functionality at 2′-position]” the “change in Tm (Δ38-39) DNA” value [7, 9] was “(6.1) degrees”, the “Tm DNA” value ([7]; against Oligomer 40, 4 μM each strand, 100 mM NaCl, 10 mM Phosphate, 0.1 mM EDTA, pH 7.0) was 54.5 degrees centigrade and the “change in Tm (Δ38-39) RNA” value [8, 9] was “(1.1) degrees”. For the same substance, the “Tm RNA” value ([8]; against Oligomer 41, 4 μM each strand, 100 mM NaCl, 10 mM Phosphate, 0.1 mM EDTA, pH 7.0) was 58.0 degrees centigrade.

In the case of U*GC-ATC-CCC-CAG-GCC-ACC-AT [ISIS 8005], the “reduction of hepatic ICAM-1 mRNA relative to LPS without oligonucleotide” value (mouse ICAM-1 mRNA; liver, 30 mg/kg i.v. 24 and 2 hours prior to LPS) is reported as “about 50%”, the “reversal of LPS-mediated induction of ICAM-1 mRNA in the lung” value (mouse ICAM-1 mRNA; lung samples, 30 mg/kg) is reported as “neither ISIS 3082 nor its 5′-cholesterol conjugate ISIS 8005 was able to reverse the LPS-mediated induction of ICAM-1 to any great degree” and the “effect on c-raf mRNA levels” value (c-raf mRNA) is reported as “no effect”. For the same substance, the “effect on PECAM-1 mRNA levels” value (PECAM-1 mRNA) was “no effect”, the “ICAM-1 staining of liver sections” value (ICAM-1 protein; LPS-induced livers, HRP-conjugated secondary antibodies) was “virtually indistinguishable” and the “overall cellular structure of liver” value (ICAM-1 protein; mouse, in vivo) was “no gross cellular defects”.
